Results on 7 molecules are retold here after patent US10611764B2 (Wisconsin Alumni Research Foundation, priority 2017, dated 2020).

Where a chain is given by its changes, count along the chain named. Read-outs that look alike come from different tables or passages of the source.

In general, Kd refers to the concentration at which binding is half-saturated. What is called EC50 is the concentration that produces a half-maximal response. Broadly, the AC50 is the concentration at which the activity in the assay is half-maximal. A lower AC50 goes with activity at low concentration.

One data set concerns the target T1, AHR (Rattus norvegicus, UniProt P41738).
T1 sequence (P41738 10-853): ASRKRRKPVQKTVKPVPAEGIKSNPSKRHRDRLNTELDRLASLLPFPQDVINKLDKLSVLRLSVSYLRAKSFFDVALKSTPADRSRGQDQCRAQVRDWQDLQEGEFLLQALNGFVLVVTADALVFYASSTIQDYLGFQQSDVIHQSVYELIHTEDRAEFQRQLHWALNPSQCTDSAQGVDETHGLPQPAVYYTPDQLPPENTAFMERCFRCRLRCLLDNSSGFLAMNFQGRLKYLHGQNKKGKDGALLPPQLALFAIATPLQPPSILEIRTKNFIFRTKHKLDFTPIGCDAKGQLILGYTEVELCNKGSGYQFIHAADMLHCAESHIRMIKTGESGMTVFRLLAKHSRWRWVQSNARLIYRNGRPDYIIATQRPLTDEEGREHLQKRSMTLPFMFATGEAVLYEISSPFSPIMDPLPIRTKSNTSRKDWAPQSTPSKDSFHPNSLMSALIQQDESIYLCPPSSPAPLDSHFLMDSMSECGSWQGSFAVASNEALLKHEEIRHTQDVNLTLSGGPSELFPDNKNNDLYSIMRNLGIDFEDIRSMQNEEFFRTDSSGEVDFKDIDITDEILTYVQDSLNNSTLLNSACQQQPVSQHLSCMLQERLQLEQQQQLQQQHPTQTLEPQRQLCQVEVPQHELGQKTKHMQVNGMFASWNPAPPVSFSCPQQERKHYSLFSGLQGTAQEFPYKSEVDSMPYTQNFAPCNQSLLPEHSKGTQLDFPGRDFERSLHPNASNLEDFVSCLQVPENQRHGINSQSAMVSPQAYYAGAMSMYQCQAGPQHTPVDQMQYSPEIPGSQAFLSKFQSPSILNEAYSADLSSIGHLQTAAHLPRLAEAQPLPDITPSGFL
Particulars: Rannug, Rannug et al. 1987; cited from earlier work.

Another data set concerns mAHR H285A mutant. Kind of data set: Luciferase reporter gene assay, mutant mAHR H285A in COS-1 cells. Format: cell-based, mouse. Particulars: relative to WT mAHR. (In general: In a reporter assay the amount or activity of a reporter protein is the signal.)
The target in data set [1] is T2, mouse AHR (mAHR B1-allele) (Mus musculus, UniProt P30561, M589L/N533S/P471L).
T2 sequence (P30561 10-805 P471L/N533S/M589L): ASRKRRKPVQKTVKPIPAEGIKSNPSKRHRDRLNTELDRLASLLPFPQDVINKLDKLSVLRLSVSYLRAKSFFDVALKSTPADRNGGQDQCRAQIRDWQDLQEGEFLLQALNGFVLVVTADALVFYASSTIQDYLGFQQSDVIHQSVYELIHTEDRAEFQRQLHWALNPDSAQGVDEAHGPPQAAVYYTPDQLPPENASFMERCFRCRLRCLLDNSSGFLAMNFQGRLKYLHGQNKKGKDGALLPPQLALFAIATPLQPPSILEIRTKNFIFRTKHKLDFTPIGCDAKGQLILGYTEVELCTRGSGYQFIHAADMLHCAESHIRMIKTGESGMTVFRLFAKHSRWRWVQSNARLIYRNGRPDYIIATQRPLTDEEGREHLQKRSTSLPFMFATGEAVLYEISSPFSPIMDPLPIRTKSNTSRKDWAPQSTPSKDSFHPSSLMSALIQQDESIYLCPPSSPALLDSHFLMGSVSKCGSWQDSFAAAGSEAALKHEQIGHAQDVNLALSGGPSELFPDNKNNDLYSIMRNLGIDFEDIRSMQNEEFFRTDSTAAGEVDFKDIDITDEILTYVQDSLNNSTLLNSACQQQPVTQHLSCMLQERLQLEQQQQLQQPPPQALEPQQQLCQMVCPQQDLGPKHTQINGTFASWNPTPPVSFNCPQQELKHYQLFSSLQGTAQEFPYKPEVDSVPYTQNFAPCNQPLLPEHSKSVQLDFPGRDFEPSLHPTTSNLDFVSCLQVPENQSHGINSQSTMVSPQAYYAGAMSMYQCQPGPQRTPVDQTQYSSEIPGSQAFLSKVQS
Briefly: cell-based. The note with it: for biological response, eight-hour versus four-hour induction: 8 h vs 4 h. The protocol:
The wild type and mutant mAHR were cloned into the XhoI/SalI cloning sites of pTARGET (Promega, Madison, Wis.) using routine PCR and molecular cloning procedures using the pSport-mAHR plasmid (PL65) as template (Dolwick, Swanson et al. 1993). For recombinant expression of mAHR, COS-1 cells were cultured in 6 cm dishes and transfected with 2 μg of wild-type or mutant mAHR expression vector. Twenty-four hours after transfection, cells were collected, and the whole cell extracts were prepared by celLytic M reagent (Sigma-Aldrich, St Louis, Mo.). 100 μg of whole cell extract was analyzed by western blot using antibodies that specifically recognize the mAHR (bear-2) and β-actin (Sigma).
COS-1 cells were cultured in 96-well plates and transiently transfected with pTarget vector containing the expression cassette of wild-type or mutant mAHR, or empty vector (3 ng), together with pGudLu6.1 DREs-driven luciferase reporter vector (14 ng) (Han, Nagy et al. 2004) and TK-renilla luciferase vector (3 ng) (Invitrogen, Carlsbad Calif.). […] The expressed luciferase activity was measured by ENSPIRE plate reader (Perkin Elmer, USA). Data analysis and simulation of dose response curves were performed using GraphPad Prism 5 (GraphPad software Inc., La Jolla, Calif.). The experiments were performed in triplicate and repeated at least three times. Representative results of one repeat are shown as mean±SEM.

Another data set concerns MH1C1 rat hepatoma cells. The note with it: MH1C1 rat hepatoma cells exposed for three hours; cited from earlier work.
Data set [2] has as its target T3, mAHR genetic variant A375V (D-allele) (Mus musculus, UniProt P30561, A375V/F348L/M589L/N533S/P471L).
T3 construct: expressed in transfected cells; host or cells: COS-1
T3 sequence (P30561 10-805 F348L/A375V/P471L/N533S/M589L): T2 sequence (P30561 10-805 P471L/N533S/M589L) with F339L, A366V
Kind of data set: Luciferase reporter gene assay, mAHR genetic variant A375V (D-allele). Format: cell-based. The note with it: compared with B-allele. The text has this:
Physiological relevant ligands of the AHR would be expected to activate polymorphic receptors within species and structurally variant receptors across species. As a model of this idea an important endogenous AHR ligands would be expected to activate AHR genetic variants arising from the murine Ahr B1 and D alleles. These two well-known genetic variants, harbor a key sequence variation at residue 375, with alanine in the B1 allele, and valine in the D allele (A375V). Residue 375 is located near the medial position of the AHR-LBD. […] These observations support the notion that AHR genetic variants might function through these endogenous ligands to control normal physiological functions.

Data set [3] relates to A375V variant of AHR (D allele). Particulars: Chang 1993, Ema 1994, Poland 1994; cited from earlier work.
The target of the next data set is T4, mAHR Q377A mutant (Mus musculus, UniProt P30561, Q377A).
T4 construct: expressed in transfected cells; host or cells: COS-1
T4 sequence (P30561 10-805 Q377A limits assumed): T2 sequence (P30561 10-805 P471L/N533S/M589L) with Q368A, L462P, S524N, L580M
Kind of data set: Luciferase reporter gene assay, mutant mAHR Q377A in COS-1 cells. Format: cell-based. The note with it: relative to WT mAHR.

Data set [4] has as its system mutant AHR, F289K, F281K, I373K, and L347R. Kind of data set: Luciferase reporter gene assay, mAHR hydrophobic pocket mutants in COS-1 cells. Format: cell-based, mouse.

In the case of 6-formylindolo [3,2-b] carbazole [FICZ], on AHR, the dissociation constant Kd is 0.07 nM. Besides, the “effect of H285A mutation on AHR induction activity” value in the data set on mAHR H285A mutant is given as “remains partially receptive”. Further, in data set [1] (COS-1 cells), the “biological response, eight-hour versus four-hour induction” value is “slightly reduced”. For the same molecule, the “activity in the 20-hour induction” value in data set [1] (COS-1 cells, 20 h vs 8 h and 4 h) is recorded as “further reduced”. Further, the EC50 in data set [1] (read-out: EC50 of AHR activation, COS-1 cells expressing mAHR, luciferase reporter, 4 hours) was 0.036 nM; in the data set with MH1C1 rat hepatoma cells it was 0.034 nM.

For `O=c1cc[nH]c2ccccc12` [4(1H)-Quinolinone (4-HQ), 4(1H)-Quinolinone], the “activity in AHR induction (in words)” value in data set [1] (known chemical derivatives of kynurenine, FIG. 10b) is listed as “did not show any activity”.

Turning to `c1ccc2c(c1)NC1=C3C2=NCC[C@H]3c2ccccc2N1` [274 ion fraction], the AC50 in data set [1] is about 5 nM.

Take `c1ccc2c(c1)cc1ccc3cccc4ccc2c1c34` [BaP, benzo[a]pyrene]: in data set [2], the “activation of the A375V D-allele” value is given as “barely stimulate”.

Turning to `Clc1cc2c(cc1Cl)Oc1cc(Cl)c(Cl)cc1O2` [TCDD, 2,3,7,8-tetrachlorodibenzo-p-dioxin], in data set [3], the “binding to the A375V variant” value is “weakened binding”.

With `Nc1ccccc1C(=O)CC(N)C(=O)O` (centres unmarked) [kynurenine (3 d, 6 m)], the concentration for a half-maximal effect (EC50) in data set [1] worked out at 2.7 nM.

For `Nc1ccccc1C(=O)CC(N)C(=O)O` (centres unmarked) [kynurenine], the “effect of H285A mutation on AHR induction activity” value with mAHR H285A mutant is listed as “completely disrupts”. Also, the “fold increase of activity by incubation or long-term storage” value in data set [1] is reported as 100-1000 fold. The “biological response, eight-hour versus four-hour induction” value in data set [1] (COS-1 cells) is on record as “higher biological response”. The EC50 in data set [1] (EC50 of AHR activation, COS-1 cells expressing mAHR, luciferase reporter, 4 hours) is about 13000 nM. In addition, the “fold increase of AHR induction by incubation” value in data set [1] (after 18 days at room temperature) and in data set [1] (after three days at 37° C.) was about 100 fold each time. Moreover, the “maximum activity, higher than BaP” value in data set [1] (relative to BaP, FIG. 2A) was 60%. The “maximum AHR activation, higher than that induced by FICZ” value in data set [1] (relative to FICZ, FIG. 1A) is recorded as about 40%. Further, the “effect of Q377A mutation on AHR induction activity” value on mAHR Q377A mutant was “barely affected”. Also, the “effect of F289K and F281K mutations on responsiveness of AHR” value in data set [4] (F289K, F281K) is “completely abolished”. Moreover, in data set [4] (I373K, L347R, FIG. 1c), the “effect of mutation of other hydrophobic residues to lysine or arginine on activity” value is “completely abolished”. Moreover, the “activation of the A375V D-allele” value in data set [2] is given as “readily activate”.
